One test addresses T1, G2019S LRRK2 (Homo sapiens, UniProt Q5S007, G2019S).
T1 construct: expressed in transfected cells; host or cells: HEK293 (ATCC CRL-1573), transient transfection, mammalian expression vector with ubiquitin promoter
In words: LRRK2 degradation assay, HiBit-tagged G2019S LRRK2 expressed from plasmid in HEK293 cells (Nano-Glo Dual-Luciferase). In kind it is cell-based. Conditions: 24 hours. In outline: (§1)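 Degradation read as Nano-Glo HiBiT signal over firefly luciferase (cell number/viability) after 24 h compound exposure of transiently transfected HEK293 expressing C-terminally HiBiT-tagged wildtype or G2019S LRRK2. Data as % DMSO; DC50/Dmax fitted per plate, triplicate plates repeated twice.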
In general terms: HiBiT is a short tag that completes a luciferase, so light tracks the accessible tagged protein.

Another test addresses T2, wildtype LRRK2 (Homo sapiens, UniProt Q5S007).
T2 construct: expressed in transfected cells; host or cells: HEK293 (ATCC CRL-1573), transient transfection, mammalian expression vector with ubiquitin promoter
In words: LRRK2 degradation assay, HiBit-tagged wildtype LRRK2 expressed from plasmid in HEK293 cells (Nano-Glo Dual-Luciferase). Type of test: cell-based. Conditions: 24 hours; for DC50: read-out: *WT DC50; for Dmax: read-out: **WT Dmax (%). In outline:
as §1

Setting [1] is: HiBit-tagged G2019S LRRK2 in HEK293 cells.
[2] abbreviates: HiBit-tagged wildtype LRRK2 in HEK293 cells.
The mark [3] stands for this setting: HiBit-tagged G2019S LRRK2, HEK293 cells.
Setting [4] is: HiBit-tagged wildtype LRRK2, HEK293 cells.

Where two headings read alike, the source gives them in different places.

T2 sequence (Q5S007 whole entry): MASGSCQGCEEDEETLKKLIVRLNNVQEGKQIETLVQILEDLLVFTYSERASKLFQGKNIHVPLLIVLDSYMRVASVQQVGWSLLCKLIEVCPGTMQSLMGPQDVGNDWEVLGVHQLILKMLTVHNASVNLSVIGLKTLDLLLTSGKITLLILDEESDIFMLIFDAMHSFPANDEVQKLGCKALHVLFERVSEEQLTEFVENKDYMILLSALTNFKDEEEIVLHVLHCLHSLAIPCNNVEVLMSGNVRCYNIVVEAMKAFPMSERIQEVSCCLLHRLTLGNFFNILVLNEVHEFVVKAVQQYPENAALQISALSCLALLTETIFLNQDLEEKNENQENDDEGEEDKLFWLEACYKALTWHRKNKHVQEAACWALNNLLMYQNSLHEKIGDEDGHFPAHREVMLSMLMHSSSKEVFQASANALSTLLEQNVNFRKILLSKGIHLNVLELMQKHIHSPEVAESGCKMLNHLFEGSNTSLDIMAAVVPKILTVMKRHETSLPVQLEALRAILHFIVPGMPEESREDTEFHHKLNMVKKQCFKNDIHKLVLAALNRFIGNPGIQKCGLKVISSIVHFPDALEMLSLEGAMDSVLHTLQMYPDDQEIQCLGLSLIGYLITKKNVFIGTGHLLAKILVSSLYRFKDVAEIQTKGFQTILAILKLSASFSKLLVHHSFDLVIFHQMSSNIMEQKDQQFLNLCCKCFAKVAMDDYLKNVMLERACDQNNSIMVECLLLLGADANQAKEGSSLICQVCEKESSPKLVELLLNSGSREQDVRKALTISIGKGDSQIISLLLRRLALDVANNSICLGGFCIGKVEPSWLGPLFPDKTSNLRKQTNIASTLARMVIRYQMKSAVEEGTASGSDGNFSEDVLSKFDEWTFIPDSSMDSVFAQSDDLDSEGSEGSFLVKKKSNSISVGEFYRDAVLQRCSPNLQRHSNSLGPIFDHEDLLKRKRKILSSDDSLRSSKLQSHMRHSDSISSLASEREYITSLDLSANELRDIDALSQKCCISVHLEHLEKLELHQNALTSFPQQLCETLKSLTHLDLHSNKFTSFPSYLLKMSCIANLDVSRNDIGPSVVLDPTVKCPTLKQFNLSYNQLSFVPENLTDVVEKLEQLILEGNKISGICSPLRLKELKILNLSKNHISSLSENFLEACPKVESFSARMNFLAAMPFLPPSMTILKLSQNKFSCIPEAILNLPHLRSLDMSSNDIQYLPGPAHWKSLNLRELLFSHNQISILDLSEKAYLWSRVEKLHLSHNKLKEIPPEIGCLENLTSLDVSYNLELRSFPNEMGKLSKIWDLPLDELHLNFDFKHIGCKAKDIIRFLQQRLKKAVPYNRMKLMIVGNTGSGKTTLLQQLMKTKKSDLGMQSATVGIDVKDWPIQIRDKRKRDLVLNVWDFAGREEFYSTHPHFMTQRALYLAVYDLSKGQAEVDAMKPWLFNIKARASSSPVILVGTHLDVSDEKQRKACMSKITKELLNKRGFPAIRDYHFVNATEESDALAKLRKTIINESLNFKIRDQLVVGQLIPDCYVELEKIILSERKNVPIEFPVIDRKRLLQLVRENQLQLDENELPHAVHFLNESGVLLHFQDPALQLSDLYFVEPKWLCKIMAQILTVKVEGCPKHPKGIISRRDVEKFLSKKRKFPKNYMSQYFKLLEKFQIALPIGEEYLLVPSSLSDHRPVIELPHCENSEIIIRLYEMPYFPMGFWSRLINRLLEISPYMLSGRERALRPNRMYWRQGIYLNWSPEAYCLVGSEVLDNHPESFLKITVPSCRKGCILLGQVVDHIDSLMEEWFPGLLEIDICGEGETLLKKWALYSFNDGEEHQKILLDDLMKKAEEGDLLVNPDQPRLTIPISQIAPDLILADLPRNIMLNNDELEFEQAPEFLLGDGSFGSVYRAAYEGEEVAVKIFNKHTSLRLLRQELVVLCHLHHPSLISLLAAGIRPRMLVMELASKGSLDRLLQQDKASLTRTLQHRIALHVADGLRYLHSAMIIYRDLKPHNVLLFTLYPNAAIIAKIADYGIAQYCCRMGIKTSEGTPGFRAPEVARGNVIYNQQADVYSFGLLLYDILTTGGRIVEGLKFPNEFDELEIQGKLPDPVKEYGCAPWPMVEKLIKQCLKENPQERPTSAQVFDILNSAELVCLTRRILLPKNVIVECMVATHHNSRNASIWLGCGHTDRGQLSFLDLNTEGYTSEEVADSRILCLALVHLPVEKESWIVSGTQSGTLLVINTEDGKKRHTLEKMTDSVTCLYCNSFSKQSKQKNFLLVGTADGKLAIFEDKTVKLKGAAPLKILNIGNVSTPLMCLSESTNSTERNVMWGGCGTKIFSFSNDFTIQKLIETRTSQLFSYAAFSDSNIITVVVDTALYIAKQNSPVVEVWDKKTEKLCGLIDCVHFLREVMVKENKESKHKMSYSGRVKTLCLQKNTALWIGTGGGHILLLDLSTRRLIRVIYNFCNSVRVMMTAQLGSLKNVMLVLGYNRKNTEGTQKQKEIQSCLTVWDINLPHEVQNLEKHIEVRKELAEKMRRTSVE
T1 sequence (Q5S007 whole entry G2019S): as the sequence (Q5S007 whole entry) above, with G2019S counted along it

One may read the DC50 as the midpoint of the concentration-degradation curve. `CC1(Oc2ccc3[nH]nc(-c4cc(N5CCC(CN6CCN(CC7CCN(c8ccc9c(c8)C(=O)N(C8CCC(=O)NC8=O)C9=O)CC7)CC6)CC5)ccn4)c3c2)CC1` (stereo not shown) [Compound 98, 2-(2,6-dioxo-3-piperidyl)-5-[4-[[4-[[1-[2-[5-(1-methylcyclopropoxy)-1H-indazol-3-yl]-4-pyridyl]-4-piperidyl]methyl]piperazin-1-yl]methyl]-1-piperidyl]isoindoline-1,3-dione]: the 50% degradation concentration (DC50) on G2019S LRRK2 (setting [1]) and at wildtype LRRK2 (setting [2]) was no less than 100 nM throughout.

A word on the Dmax: it is the greatest extent of degradation seen. As for `C[C@H]1CN(c2cc(-c3n[nH]c4ccc(OC5(C)CC5)cc34)ncn2)CCN1CCN1CCN(CC2CCN(c3ccc4c(c3)C(=O)N(C3CCC(=O)NC3=O)C4=O)CC2)CC1` (stereo partly drawn) [Compound 55, 2-(2,6-dioxopiperidin-3-yl)-5-{4-[(4-{2-[(2S)-2-methyl-4-{6-[5-(1-methylcyclopropoxy)-1H-indazol-3-yl]pyrimidin-4-yl}piperazin-1-yl]ethyl}piperazin-1-yl)methyl]piperidin-1-yl}-2,3-dihydro-1H-isoindole-1,3-dione], at G2019S LRRK2 (setting [1]), the half-maximal degradation concentration (DC50) is less than 10 nM and the maximal degradation (Dmax) was no less than 70%. Also, at wildtype LRRK2 (setting [2]), the Dmax was no less than 70% and the DC50 is less than 10 nM.

Consider `CC1(Oc2ccc3[nH]nc(-c4cc(N5C[C@@H]6[C@@H](CN7CCN(CC8CCN(c9ccc%10c(c9)C(=O)N(C9CCC(=O)NC9=O)C%10=O)CC8)CC7)[C@@H]6C5)ncn4)c3c2)CC1` (stereo partly shown) [Compound 75, 2-(2,6-dioxopiperidin-3-yl)-5-{4-[(4-{[(1r,5s,6s)-3-{6-[5-(1-methylcyclopropoxy)-1H-indazol-3-yl]pyrimidin-4-yl}-3-azabicyclo[3.1.0]hexan-6-yl]methyl}piperazin-1-yl)methyl]piperidin-1-yl}-2,3-dihydro-1H-isoindole-1,3-dione], for which, at G2019S LRRK2 (setting [1]), the DC50 is less than 10 nM and the Dmax is no less than 70%. For the same compound, on wildtype LRRK2 (setting [2]), the greatest degradation seen (Dmax) was no less than 70% and the DC50 was less than 10 nM.

At G2019S LRRK2 (setting [3]), `CC1(Oc2ccc3n[nH]c(-c4cc(N5CCN(CC6CC7(CCN(CC8CCN(c9ccc%10c(c9)C(=O)N(C9CCC(=O)NC9=O)C%10=O)CC8)CC7)C6)CC5)ncn4)c3c2)CC1` (stereo not shown) [Compound 177, 2-(2,6-dioxo-3-piperidyl)-5-[4-[[2-[[4-[6-[5-(1-methylcyclopropoxy)-2H-indazol-3-yl]pyrimidin-4-yl]piperazin-1-yl]methyl]-7-azaspiro[3.5]nonan-7-yl]methyl]-1-piperidyl]isoindoline-1,3-dione] gave a DC50 of 10 to 50 nM and a Dmax of 50 to 70%. Also, at wildtype LRRK2 (setting [4]), the Dmax was in the range of 50 to 70% and the DC50 is 10 to 50 nM.

For `C[C@H]1CN(c2cc(-c3n[nH]c4ccc(OC5(C)CC5)cc34)ccn2)CCN1CC1(F)CCN(CC2CCN(c3ccc4c(c3)C(=O)N(C3CCC(=O)NC3=O)C4=O)CC2)CC1` (stereo partly drawn) [Compound 81, 2-(2,6-dioxopiperidin-3-yl)-5-{4-[(4-fluoro-4-{[(2S)-2-methyl-4-{4-[5-(1-methylcyclopropoxy)-1H-indazol-3-yl]pyridin-2-yl}piperazin-1-yl]methyl}piperidin-1-yl)methyl]piperidin-1-yl}-2,3-dihydro-1H-isoindole-1,3-dione], the half-maximal degradation concentration (DC50) on G2019S LRRK2 (setting [1]) and on wildtype LRRK2 (setting [2]) was less than 10 nM in each case. For the same compound, the Dmax at G2019S LRRK2 (setting [1]) and at wildtype LRRK2 (setting [2]) was less than 50% throughout.

`CC1(Oc2ccc3[nH]nc(-c4cc(N5CCC(CN6CC7(CCN7CC7CCN(c8ccc9c(c8)C(=O)N(C8CCC(=O)NC8=O)C9=O)CC7)C6)CC5)ncn4)c3c2)CC1` (stereo not shown) [Compound 176, 2-(2,6-dioxo-3-piperidyl)-5-[4-[[6-[[1-[6-[5-(1-methylcyclopropoxy)-1H-indazol-3-yl]pyrimidin-4-yl]-4-piperidyl]methyl]-1,6-diazaspiro[3.3]heptan-1-yl]methyl]-1-piperidyl]isoindoline-1,3-dione]: the DC50 on G2019S LRRK2 (setting [3]) and on wildtype LRRK2 (setting [4]) was less than 10 nM throughout. Also, the values for the Dmax on G2019S LRRK2 (setting [3]) and on wildtype LRRK2 (setting [4]) were less than 50% and 50 to 70%, respectively.

The values above are taken from patent US12559506B2, “Indazole based compounds and associated methods of use” (Arvinas Operations, Inc., priority 2021, dated 2026).
